{"source": "patent US20230158102A1", "about": "(priority 2020, published 2023)", "key": {"[1]": {"system": "HIV-1 (recombinant virus NL4.3 Luc)", "test": "microbe, parasite or virus in culture", "format": "cell-based", "conditions": "for IC50: Human immunodeficiency virus 1, PBMC"}, "[2]": {"system": "HIV-1 (recombinant virus NL4.3 Luc)", "test": "microbe, parasite or virus in culture", "format": "cell-based"}, "[3]": {"test": "in vitro", "conditions": "human"}, "[4]": {"system": "MT-2 cells"}, "[5]": {"system": "Huh-7 cells"}, "[6]": {"system": "HCoV-229E", "format": "cell-based"}, "[7]": {"system": "C-reactive protein", "test": "C-reactive protein tests in COVID-19 patients treated with PLD", "format": "in vivo, human", "protocol": "The effect of PLD on inflammatory cytokines was also measured for patients 5, 7 and 9 and the results of C-reactive protein tests are shown in FIG. 36."}, "[8]": {"system": "SARS-CoV-2 (COVID-19)", "test": "Study APLICOV-PC (NCT04382066): efficacy in patients hospitalised for COVID-19", "format": "in vivo, human"}, "[9]": {"conditions": "Huh-7, 50 nM, 5 nM and 0.5 nM, 24 hpi"}, "[10]": {"conditions": "interim results, 8 evaluable patients"}}, "note": "Entries after “also recorded” stand apart in the source; their conditions may differ. Where two headings read alike, the source gives them in different places. Numbered stars: 1 amine (or outer) side, 2 acyl side, 3 side chain; on linkers, the order of the positions; unused ones are H or OH. Bridge positions count the residues as written; N and C are the ends. Square brackets hold non-standard residues; d marks the D form. Peptide text beside a SMILES is read from it. * marks the point of attachment. Benzothiophen(2-yl)carbonyl = O=C(c1cc2ccccc2s1)*; X2 = CC[C@H](C)[C@@H](N[*:1])[C@@H](O)CC(=O)[*:2]; NMeY = CN[C@@H](Cc1ccc(O)cc1)C(=O)O; dNMeL = CN[C@H](CC(C)C)C(=O)O; Tos = Cc1ccc(S(=O)(=O)*)cc1; Hiv = CC(C)[C@H](O)C(=O)O; Aib = CC(C)(N)C(=O)O", "data": [{"smiles": "CC[C@H](C)[C@H]1NC(=O)[C@@H](NC(=O)[C@@H](CC(C)C)NC)[C@@H](C)OC(=O)[C@H](Cc2ccc(OC)cc2)N(C)C(=O)[C@@H]2CCCN2C(=O)[C@H](CC(C)C)NC(=O)C(C)(C)NC(=O)C[C@@H]1O", "note": "[Compound 3] (H-[dNMeL]T[X2][Aib]LP[NMeY](Me); ester 2-C)", "values": [{"measurement": "IC50", "setting": "[1]; read-out: IC50 (antiviral activity), preactivated PBMCs infected with NL4.3 Luc, 48 hours", "value": 160, "unit": "nM"}, {"measurement": "IC50", "setting": "[2]; Human immunodeficiency virus 1, MT2, read-out: IC50 (antiviral activity), MT-2 cells infected with NL4.3 Luc, 48 hours", "value": 1390, "unit": "nM"}, {"measurement": "CC50", "setting": "[3]", "value": "~27000", "unit": "nM"}, {"measurement": "Toxic concentrations not reached at", "setting": "[4]", "value": "> 57.3", "unit": "µM"}]}, {"smiles": "CC[C@H](C)[C@H]1NC(=O)[C@@H](NC(=O)[C@@H](CC(C)C)N(C)S(=O)(=O)c2ccc(C)cc2)[C@@H](C)OC(=O)[C@H](Cc2ccc(OC)cc2)N(C)C(=O)[C@@H]2CCCN2C(=O)[C@H](CC(C)C)NC(=O)[C@H](C(C)C)OC(=O)C[C@@H]1O", "note": "[Compound 11] (Tos-[dNMeL]T[X2][Hiv]LP[NMeY](Me); ester 2-C)", "values": [{"measurement": "IC50", "setting": "[1]", "value": 69.4, "unit": "nM"}]}, {"smiles": "CC[C@H](C)[C@H]1NC(=O)[C@@H](NC(=O)[C@@H](CC(C)C)N(C)C(=O)[C@@H]2CCCN2C(=O)[C@H](C)NC(=O)[C@@H](Cc2ccccc2)NC(=O)OC(C)(C)C)[C@@H](C)OC(=O)[C@H](Cc2ccc(OC)cc2)N(C)C(=O)[C@@H]2CCCN2C(=O)[C@H](CC(C)C)NC(=O)[C@@H](C)C(=O)[C@H](C(C)C)OC(=O)C[C@@H]1O", "note": "[Compound 9]", "values": [{"measurement": "IC50", "setting": "[1]; PBMCs, read-out: IC50", "value": 0.63, "unit": "nM"}, {"measurement": "Cell growth / viability (fluorescence images)", "setting": "[5]", "value": "cells remain viable at all concentrations"}, {"measurement": "Antiviral activity (fluorescence images)", "setting": "[6]", "value": "remarkable antiviral properties are seen across all concentrations"}]}, {"smiles": "CC[C@H](C)[C@H]1NC(=O)[C@@H](NC(=O)[C@H](CC(C)C)N(C)C(=O)[C@@H]2CCCN2C(=O)C(C)=O)[C@@H](C)OC(=O)[C@H](Cc2ccc(OC)cc2)N(C)C(=O)[C@@H]2CCCN2C(=O)[C@H](CC(C)C)NC(=O)[C@@H](C)C(=O)[C@H](C(C)C)OC(=O)C[C@@H]1O", "note": "[Compound 8]", "values": [{"measurement": "Antiviral activity", "setting": "[1]; PBMCs", "value": "showed also antiviral activity"}, {"measurement": "Antiviral activity", "setting": "[2]; MT-2 cells", "value": "showed also antiviral activity"}, {"measurement": "IC50 value, fold lower than the specific concentration of 10 μM", "setting": "[2]; MT-2 cells and PBMCs, not told apart", "value": 100, "unit": "fold"}, {"measurement": "Specificity of antiviral activity", "setting": "[2]; at 10 μM, MT-2 cells and PBMCs, not told apart", "value": "specific"}, {"measurement": "Specificity of antiviral activity", "setting": "[2]; at 50 μM, MT-2 cells and PBMCs, not told apart", "value": "non-specific"}]}, {"smiles": "CC[C@H](C)[C@H]1NC(=O)[C@@H](NC(=O)C(CC(C)C)N(C)C(=O)[C@@H]2CCCN2C(=O)C(C)=O)[C@@H](C)OC(=O)[C@H](Cc2ccc(OC)cc2)N(C)C(=O)[C@@H]2CCCN2C(=O)[C@H](CC(C)C)NC(=O)[C@@H](C)C(=O)[C@H](C(C)C)OC(=O)C[C@@H]1O", "note": "(stereo in doubt) [PLD, (−)-(3S,6R,7S,10R,11S,15S,17S,20S,25aS)-11-hydroxy-3-(4-methoxybenzyl)-2,6,17-trimethyl-15-(1-methylethyl)-7-[[(2R)-4-methyl-2-[methyl[[(2S)-1-(2-oxopropanoyl)pyrrolidin-2-yl]carbonyl]amino]pentanoyl]amino]-10-[(1S)-1-methylpropyl]-20-(2-methylpropyl)tetradecahydro-15H-pyrrolo[2,1-f]-[1,15,4,7,10,20]dioxatetrazacyclotricosine-1,4,8,13,16,18,21(17H)-heptone]", "values": [{"measurement": "Cell growth / viability (fluorescence images)", "setting": "[5]; [9]", "value": "cells remain viable at all concentrations"}, {"measurement": "Antiviral activity (fluorescence images)", "setting": "[6]", "value": "remarkable antiviral properties are seen across all concentrations"}, {"measurement": "Acute fall of C-reactive protein seen by day", "setting": "[7]; patient 5 (PLD 1.5 mg×3)", "value": "≤ 2", "unit": "days"}, {"measurement": "Acute fall of C-reactive protein seen by day", "setting": "[7]; patients 7 and 9 (PLD 2.0 mg×3)", "value": "≤ 3", "unit": "days"}, {"measurement": "Clinical course (single patient)", "setting": "[8]; PLD 1.5 mg×3, interim results", "value": "Acute clinical improvement; also recorded: lack of improvement; also recorded: prevented clinical deterioration; also recorded: Major clinical improvement"}, {"measurement": "Clinical course (single patient)", "setting": "[8]; PLD 2.0 mg×3, interim results", "value": "major clinical improvement"}, {"measurement": "PCR COVID 19 test at day 7 (single patient)", "setting": "[8]; PLD 2.0 mg×3, interim results", "value": "still positive"}, {"measurement": "Removal of viral burden", "setting": "[8]; ad hoc analysis of the first cohort at 1.5 mg and 2 mg", "value": "complete removal of viral burden was noted in the vast majority of patients"}, {"measurement": "Evaluable patients requiring post PLD specific anti COVID 19 therapy", "setting": "[8]; [10]", "value": "2 out of 8"}, {"measurement": "Evaluable patients with SARS-CoV-2 PCR conversion to negative", "setting": "[8]; [10]", "value": "6 out of 8"}, {"measurement": "Evaluable patients with disease control and major clinical improvements", "setting": "[8]; [10]", "value": "6 out of 8"}, {"measurement": "Deaths on study", "setting": "[8]; interim results, 9 patients", "value": "no deaths on study"}, {"measurement": "Need for mechanical ventilation or ICU admission", "setting": "[8]; interim results, 9 patients", "value": "none of the patients required mechanical ventilation or ICU admission"}]}, {"smiles": "CC[C@H](C)[C@H]1NC(=O)[C@@H](NC(=O)[C@@H](CC(C)C)N(C)C(=O)c2cc3ccccc3s2)[C@@H](C)OC(=O)[C@H](Cc2ccc(OC)cc2)N(C)C(=O)[C@@H]2CCCN2C(=O)[C@H](CC(C)C)NC(=O)[C@H](C(C)C)OC(=O)C[C@@H]1O", "note": "[Compound 10] ({Benzothiophen(2-yl)carbonyl}-[dNMeL]T[X2][Hiv]LP[NMeY](Me); ester 2-C)", "values": [{"measurement": "IC50", "setting": "[1]", "value": 0.86, "unit": "nM"}, {"measurement": "Cell growth / viability (fluorescence images)", "setting": "[5]; [9]", "value": "cells remain viable at all concentrations"}, {"measurement": "Antiviral activity (fluorescence images)", "setting": "[6]", "value": "remarkable antiviral properties are seen across all concentrations"}]}]}
